Measured values from patent US20260242738A1, “ALK5 INHIBITORS FOR EFFICIENT DERIVATION OF MESENCHYMAL STEM CELLS FROM EMBRYONIC STEM CELLS” (SCRIPPS HEALTH, priority 2022, published 2026).

How the values were obtained:
HADC 100 ES-MSC = test: Chondrogenic gene expression of pellets relative to monolayer controls; assay type: cell-based, human; conditions: HADC 100 ES-MSC pellets
Protocol: (§1) Monolayer-expanded ES-MSC (passage 2-5) were detached using Accutase® and 0.5×10^6 cells in 0.5 ml of chondrogenic medium were centrifuged at 900 rpm (~770 G) for 5 minutes to form high-density pellets. At least 5-6 pellets, for each ES-MSC condition, were cultured in serum-free chondrogenic medium consisting of Dulbecco's Modified Eagle Medium (Mediatech Inc., Manassas, VA), 1×ITS supplement (Sigma-Aldrich, St. Louis, MO), 100 nM Dexamethasone (Sigma), 1.25 mg/ml human serum albumin (Bayer, Leverkusen, Germany), 100 μM ascorbic acid 2-phosphate (Sigma), 1% penicillin/streptomycin/gentamycin (PSG, Gibco, Carlsbad, CA), and 10 ng/ml TGFβ3 (PeproTech, Rocky Hill, NJ). Pellets for ex vivo implantation were cultured for 3 days before implantation; pellets for histologic or gene expression analysis were maintained in culture for 3 weeks with media changes every 3 to 4 days.
(§2) Total RNA was extracted from using the RNeasy kit as recommended by the manufacturer (QIAGEN, Valencia, CA). […] Expression of the following genes was quantified POU5F1/OCT4 and SOX2 (for pluripotency); FOXA1 and SOX17 (for endoderm); NES and PAX6 (for ectoderm); NKX2-5, MSX1, NCAM1, and SOX9 (for mesoderm); ITGB1/CD29 (for MSC phenotype); and COL1A1, COL2A1, COL10A1, COMP, ACAN, and SOX9 and RUNX2 (for chondrogenesis). […]

H9 ES-MSC = test: as above; assay type: cell-based, human
Protocol: as §1, §2

HADC100 ESC = test: Gene expression of ES-MSC in monolayer culture; assay type: cell-based, human; conditions: comparison of ALK5 inhibitors
Protocol: An overview of the differentiation process is provided in FIG. 1, panel K. To create cell clusters or embryoid bodies of uniform size, ESCs were removed from CellStart culture using Accutase® for 2-5 minutes until single cells were observed. Cells (2.5-3×10^5 cells per ml) were suspended in StemPro human ESC serum free medium (ThermoFisher) with 10 μM Y-27632 (EMD Chemicals, Gibbstown, NJ) and 40 ng/ml FGF (Life Technologies, Carlsbad, CA) in a 125 ml spinner culture flask (Corning Inc., Corning, NY) on a magnetic stirrer (CimarecTM Biosystem Slow-Speed Stirrer, ThermoFisher) at 70 rpm for 24 hours at 37° C. with 5% CO2 to form small cell clusters (minimum total cells was 7.5×10^6 in 30 ml). After 24 hours, the cell clusters were suspended at 2.5-3×10^5 cells per ml in ultra-low adherent 6 well plates (Corning) in […] free medium (ThermoFisher) supplemented with 2 mM L-glutamine (ThermoFisher Scientific), 50 μg/ml Ascorbic acid (Stemcell Technologies, Vancouver, Canada) and 1.8 μl/ml ITS-G (100× Insulin-Transferrin-Selenium; ThermoFisher); termed as “complete SP-34 medium”. […] Expression of the following genes was quantified POU5F1/OCT4 and SOX2 (for pluripotency); FOXA1 and SOX17 (for endoderm); NES and PAX6 (for ectoderm); NKX2-5, MSX1, NCAM1, and SOX9 (for mesoderm); ITGB1/CD29 (for MSC phenotype); and COL1A1, COL2A1, COL10A1, COMP, ACAN, and SOX9 and RUNX2 (for chondrogenesis). […]

[1] = tested on: ex vivo osteoarthritic cartilage explants; test: Ex vivo human osteoarthritic cartilage defect repair with fibrin-ECM constructs or pellets; assay type: cell-based; conditions: implanted as hydrogel or pellets, 3 weeks, serum-free chondrogenic medium with TGFβ3 10 ng/ml
Protocol: Monolayer cultured ES-MSC were suspended in a hydrogel wafer composed of collagen II (Innovative Research Inc. Novi, MI), hyaluronate (Supartz FX sodium hyaluronate, Seikagaku Corp. Tokyo, Japan), chondroitin sulfate (Sigma-Aldrich) and fibrin (Baxter Healthcare, Deerfield, IL) at a density of 20×10^6 cells per ml. The fibrinogen and thrombin components were prepared separately. To each fibrinogen component, 2 mg/ml sodium hyaluronate, 2 mg/ml chondroitin sulfate and 6 mg/ml collagen II was added (2× concentration of final). Cells were added to the thrombin component at a density of 40×10^6 cells per ml. Thrombin and fibrinogen components in individual syringes were attached to a Baxter DUO mixing syringe and extruded to form the coagulated constructs. The constructs were either directly implanted into ex vivo cartilage tissue or coagulated in 6 well tissue culture plates for 4 to 8 minutes before 4-6 ml of chondrogenic medium was added. To prevent shrinkage of the constructs during culture, the gels were held on AdminPatch microneedle arrays (AdminMed, Sunnyvale, CA) for the duration of their culture.
Osteochondral tissues were obtained from patients ranging between 60 to 70 years of age undergoing total knee arthroplasty within 4-6 hours of surgery (approved by Scripps Institutional Review Board) as previous described. Cartilage disks (6 mm in diameter and ~2-3 mm thick) were harvested from the osteochondral specimens using a sterile dermal punch. The cartilage tissue was cultured in medium consisting of DMEM (Mediatech Inc., Manassas, VA) supplemented with 10% calf serum (Omega Scientific Inc., Tarzana, CA) and 1% Penicillin-Streptomycin-Gentamycin (Life Technologies, Carlsbad, CA). Cartilage disks were maintained in 6-well plates (2-4 per well) in 8 ml medium for 72 hours before creation of the surgical defect. A flame-sterilized stainless-steel burr was used create defects approximately 2×2 mm wide and 0.5 to 1 mm deep. These defects were filled with pellets or hydrogel constructs trimmed to size using 2 mm dermal biopsy punches. […]

ES-MSC = ES-MSC seeded scaffolds implanted subcutaneously into a nude mouse; assay type: in vivo; conditions: 1 week in vitro, then subcutaneous in nude mouse for 5 weeks
Excerpt: ES-MSC derived from treatment with ALK-5 inhibitor SB525334, as described in Example 1, produced meniscus cartilage-like tissues when seeded upon blow spun collagen scaffolds in in vitro and in vivo.

| Compound | chondrogenic genes (COL2A1, ACAN, COMP and SOX9) relative to monolayer controls (HADC 100 ES-MSC) | chondrogenic genes (COL2A1, ACAN, COMP and SOX9) relative to monolayer controls (H9 ES-MSC) | generating mesoderm markers (NCAM1, SOX9) and increasing COL2A1 expression (HADC100 ESC) | cartilaginous neo-tissue formation in ex vivo osteoarthritic explants [1] | meniscus cartilage-like tissue, Safranin O staining (ES-MSC) |
| --- | --- | --- | --- | --- | --- |
| NC(=O)c1ccc(-c2nc(-c3ccc4c(c3)OCO4)c(-c3ccccn3)[nH]2)cc1 [SB431542] | higher levels | higher levels | superior | formed equally well | – |
| Cc1cccc(-c2[nH]c(C(C)(C)C)nc2-c2ccc3nccnc3c2)n1 [SB525334] | – | – | – | formed equally well | strong Safranin O staining profile |
